In brackets after ≈: the same amount, converted by molar mass.
How the values were obtained:
Orexin receptor type 2 = biological target: T1, Orexin receptor type 2 (Homo sapiens, UniProt O43614)
T1 sequence (O43614 whole entry): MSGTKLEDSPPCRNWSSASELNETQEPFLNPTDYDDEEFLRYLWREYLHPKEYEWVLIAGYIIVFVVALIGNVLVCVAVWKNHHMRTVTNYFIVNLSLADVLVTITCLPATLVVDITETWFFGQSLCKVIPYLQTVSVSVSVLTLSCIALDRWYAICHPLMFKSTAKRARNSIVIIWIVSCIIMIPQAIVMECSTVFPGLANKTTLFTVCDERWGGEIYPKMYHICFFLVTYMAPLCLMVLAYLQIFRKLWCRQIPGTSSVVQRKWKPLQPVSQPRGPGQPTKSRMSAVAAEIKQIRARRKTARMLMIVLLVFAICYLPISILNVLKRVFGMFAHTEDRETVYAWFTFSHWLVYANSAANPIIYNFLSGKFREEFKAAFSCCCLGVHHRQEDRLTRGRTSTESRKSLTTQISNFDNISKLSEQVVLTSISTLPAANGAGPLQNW
Description: Antagonist activity at human OX2R expressed in CHO cells preincubated for 120 mins followed by orexin-A addition by FLIPR assay

in vitro [1] = settings: human, liver microsomes
[2] = biological target: T2, Orexin/Hypocretin receptor type 1 (Homo sapiens, UniProt O43613)
T2 sequence (O43613 whole entry): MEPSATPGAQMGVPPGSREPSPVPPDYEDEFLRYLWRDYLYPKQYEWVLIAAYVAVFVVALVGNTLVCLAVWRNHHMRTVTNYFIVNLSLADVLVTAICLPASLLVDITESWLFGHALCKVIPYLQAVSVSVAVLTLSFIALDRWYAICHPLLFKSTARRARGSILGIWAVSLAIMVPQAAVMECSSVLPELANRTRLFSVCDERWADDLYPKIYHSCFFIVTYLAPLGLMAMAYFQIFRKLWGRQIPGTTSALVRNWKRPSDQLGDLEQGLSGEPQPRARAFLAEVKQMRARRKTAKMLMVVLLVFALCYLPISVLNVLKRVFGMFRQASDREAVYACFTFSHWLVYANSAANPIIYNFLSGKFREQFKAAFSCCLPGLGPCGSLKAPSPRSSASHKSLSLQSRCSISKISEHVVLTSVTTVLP
Description: Antagonist activity at human OX1R expressed in CHO cells preincubated for 120 mins followed by orexin-A addition by FLIPR assay

[3] = Unbound drug concentration in Wistar rat plasma at 1 mg/kg, po measured after 1 hr by LC-tandem MS analysis; assay type: ADME, organism-based; settings: in vivo
[4] = Apparent permeability across basal to apical side in MDCKI-MDR1 cells; assay type: ADME, cell-based, Canis lupus familiaris; settings: dog, MDCK-MDR1
[5] = Ratio of unbound drug concentration in Wistar rat brain to plasma at 1 mg/kg, po measured after 1 hr by LC-tandem MS analysis; assay type: ADME, organism-based; settings: read-out: K(p,uu,brain)
[6] = Apparent permeability across apical to basal side in MDCKI-MDR1 cells; assay type: ADME, cell-based, Canis lupus familiaris; settings: dog, MDCK-MDR1
[7] = Drug concentration in cerebrospinal fluid of Wistar rat at 1 mg/kg, po measured after 1 hr by LC-tandem MS analysis; assay type: ADME, organism-based; settings: read-out: Ct
[8] = Unbound drug concentration in Wistar rat brain at 1 mg/kg, po measured after 1 hr by LC-tandem MS analysis; assay type: ADME, organism-based; settings: in vivo
[9] = biological target: T3, Orexin/Hypocretin receptor type 1 (Rattus norvegicus) (UniProt P56718); settings: Wistar, dose 1.0 mg/kg, route po, time 1.0 hrs
T3 sequence (whole entry): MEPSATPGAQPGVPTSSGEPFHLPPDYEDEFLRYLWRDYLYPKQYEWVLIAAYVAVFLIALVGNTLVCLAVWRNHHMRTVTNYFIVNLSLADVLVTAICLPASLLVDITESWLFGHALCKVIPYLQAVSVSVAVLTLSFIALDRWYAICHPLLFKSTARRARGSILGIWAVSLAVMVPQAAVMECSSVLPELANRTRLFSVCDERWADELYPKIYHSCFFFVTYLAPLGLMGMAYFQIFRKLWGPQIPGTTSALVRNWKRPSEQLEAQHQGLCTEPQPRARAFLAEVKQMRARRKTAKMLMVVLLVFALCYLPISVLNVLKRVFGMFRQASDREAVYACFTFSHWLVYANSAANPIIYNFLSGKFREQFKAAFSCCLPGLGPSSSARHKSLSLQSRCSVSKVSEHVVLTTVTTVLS

[10] = Solubility of compound in FeSSIF; assay type: ADME
in vitro [11] = settings: rat, liver microsomes
in vitro [12] = settings: dog, MDCK-MDR1
Description: Efflux ratio in MDCKI-MDR1 cells

Row | SMILES | IC50 (Orexin receptor type 2) | microsomal CLint at 1 µM (in vitro [1]) | IC50 [2] | also measured
1 | Cc1cccc(-c2sc(C)nc2C(=O)N2CCC[C@H]2Cc2cccc(-c3ncon3)c2)c1 | 4.4 nM |  |  | 
2 | Cc1ccc(C(=O)N2CCO[C@@H](C)[C@H]2Cc2cccc(-n3nccn3)c2)c(-n2nccn2)c1 |  | 327 µL/min/mg |  | 
3 | Cc1ccc(C(=O)N2CCOC[C@H]2Cc2cccc(-n3nccn3)c2F)c(-n2nccn2)c1 | 2020 nM | 170 µL/min/mg | 21 nM | 
4 | Cc1ccc(-n2nccn2)c(C(=O)N2CCOC[C@H]2Cc2cccc(-n3nccn3)c2)c1 | 214 nM | 119 µL/min/mg | 1.7 nM | Cp(f) [3]: 36 nM; Papp B→A [4]: 55.9 ×10⁻⁶ cm/s; Kp uu at 1 h [5]: 0.53; Papp A→B [6]: 15.3 ×10⁻⁶ cm/s; concentration at 1 h [7]: 51 nM; Drug uptake(free) [8]: 19 nM; Occ [9]: > 91%; solubility [10]: 46 µg/mL (≈ 107 µM); microsomal CLint at 1 µM (in vitro [11]): > 1250 µL/min/mg
5 | O=C(c1ccc(F)cc1-n1nccn1)N1CCOC[C@H]1Cc1cccc(-n2nccn2)c1 | 1040 nM | 101 µL/min/mg | 37 nM | 
6 | Cc1cccc(C(=O)N2CCOC[C@H]2Cc2cccc(-n3nccn3)c2)c1-n1nccn1 |  | 204 µL/min/mg | 5.5 nM | Cp(f) [3]: 278 nM; Papp B→A [4]: 66 ×10⁻⁶ cm/s; Kp uu at 1 h [5]: 0.94; Papp A→B [6]: 16.1 ×10⁻⁶ cm/s; concentration at 1 h [7]: 1000 nM; Drug uptake(free) [8]: 260 nM; solubility [10]: 337 µg/mL (≈ 785 µM); microsomal CLint at 1 µM (in vitro [11]): > 1250 µL/min/mg
7 | Cc1ccc(C(=O)N2C[C@H](C)OC[C@H]2Cc2cccc(-n3nccn3)c2)c(-n2nccn2)c1 | 265 nM | 322 µL/min/mg | 11 nM | 
8 | Cc1ccc(C(=O)N2CCOC[C@H]2Cc2cccc(-n3nccn3)c2)c(-n2nccn2)c1C | 2430 nM | 292 µL/min/mg | 2.8 nM | Cp(f) [3]: 72 nM; Papp B→A [4]: 59.4 ×10⁻⁶ cm/s; Kp uu at 1 h [5]: 2.04; efflux ratio (in vitro [12]): 5; Papp A→B [6]: 11.8 ×10⁻⁶ cm/s; concentration at 1 h [7]: 370 nM; Drug uptake(free) [8]: 147 nM; Occ [9]: > 98%; solubility [10]: 293 µg/mL (≈ 661 µM); microsomal CLint at 1 µM (in vitro [11]): > 1250 µL/min/mg
9 | O=C(c1ccccc1-n1nccn1)N1CCOC[C@H]1Cc1cccc(-n2nccn2)c1 |  | 59 µL/min/mg |  | 
10 | Cc1ccc(C(=O)N2C[C@@H](C)OC[C@H]2Cc2cccc(-n3nccn3)c2)c(-n2nccn2)c1 | 215 nM | 139 µL/min/mg | 4 nM | 
11 | Cc1cccc(-n2nccn2)c1C(=O)N1CCOC[C@H]1Cc1cccc(-n2nccn2)c1 |  |  | 109 nM | 
12 | Cc1ccc(-n2nccn2)c(C(=O)N2CCCC[C@H]2Cc2cccc(-n3nccn3)c2)c1 | 1.7 nM | 634 µL/min/mg |  | microsomal CLint at 1 µM (in vitro [11]): > 1250 µL/min/mg
13 | O=C(c1ccccc1-n1nccn1)N1CCC[C@H]1Cc1cccc(-n2nccn2)c1 |  |  | 5.9 nM | 
14 | Cc1cccc(-c2ncncc2C(=O)N2CCC[C@H]2Cc2cccc(-n3nccn3)c2)c1 |  |  | 9.5 nM | 
15 | Cc1ccc(C(=O)N2CCOC[C@H]2Cc2cc(Cl)cc(-n3nccn3)c2)c(-n2nccn2)c1 |  | 89 µL/min/mg | 1.9 nM | 
16 | Cc1nc(C(=O)N2CCC[C@H]2Cc2cccc(-n3nccn3)c2)c(-c2ccc3c(c2)OCO3)s1 | 12 nM |  | 3.6 nM | 

Row | SMILES | IC50 (Orexin receptor type 2) | microsomal CLint at 1 µM (in vitro [1]) | IC50 [2] | also measured
17 | Cc1nc(C(=O)N2CCC[C@H]2Cc2cccc(-n3nccn3)c2)c(-c2ccc(F)cc2)s1 | 100 nM |  | 17 nM | 
18 | Cc1ccc(C(=O)N2CCOC[C@H]2Cc2cc(-n3nccn3)ccc2C)c(-n2nccn2)c1 | 1110 nM | 208 µL/min/mg | 4.1 nM | 
19 | O=C(c1c(F)cccc1-n1nccn1)N1CCOC[C@H]1Cc1cccc(-n2nccn2)c1 | 1550 nM |  |  | 
20 | COc1ccc(-n2nccn2)c(C(=O)N2CCOC[C@H]2Cc2cccc(-n3nccn3)c2)c1 | 784 nM | 121 µL/min/mg | 3 nM | Papp B→A [4]: 60.6 ×10⁻⁶ cm/s; efflux ratio (in vitro [12]): 10; Papp A→B [6]: 6.1 ×10⁻⁶ cm/s; microsomal CLint at 1 µM (in vitro [11]): > 1250 µL/min/mg
21 | COc1ccc(C(=O)N2CCOC[C@H]2Cc2cccc(-n3nccn3)c2)c(-n2nccn2)c1 | 1430 nM | 157 µL/min/mg | 6.2 nM | Papp B→A [4]: 62.4 ×10⁻⁶ cm/s; efflux ratio (in vitro [12]): 7.2; Papp A→B [6]: 8.7 ×10⁻⁶ cm/s; microsomal CLint at 1 µM (in vitro [11]): > 1250 µL/min/mg
22 | Cc1ccc(C(=O)N2CCO[C@H](C)[C@H]2Cc2cccc(-n3nccn3)c2)c(-n2nccn2)c1 |  | 301 µL/min/mg |  | 
23 | Cc1ccc(C(=O)N2CCOC[C@H]2Cc2cc(-n3nccn3)ccc2Cl)c(-n2nccn2)c1 | 595 nM | 158 µL/min/mg | 3.1 nM | 
24 | Cc1ccc(C(=O)N2CCOC[C@H]2Cc2ccc(C)c(-n3nccn3)c2)c(-n2nccn2)c1 | 184 nM | 391 µL/min/mg | 1.4 nM | 
25 | Cc1ccc(C(=O)N2CCOC[C@H]2Cc2cc(F)cc(-n3nccn3)c2)c(-n2nccn2)c1 |  | 164 µL/min/mg | 3.5 nM | 
26 | Cc1ccc(-n2nccn2)c(C(=O)N2CCC[C@H]2Cc2cccc(-n3nccn3)c2)c1 | 7 nM | > 1250 µL/min/mg | 0.7 nM | microsomal CLint at 1 µM (in vitro [11]): > 1250 µL/min/mg
27 | O=C(c1cccc(F)c1-n1nccn1)N1CCOC[C@H]1Cc1cccc(-n2nccn2)c1 |  | 104 µL/min/mg |  | 
28 | O=C(c1cc(F)ccc1-n1nccn1)N1CCOC[C@H]1Cc1cccc(-n2nccn2)c1 |  | 227 µL/min/mg |  | 
29 | Cc1cccc(-c2sc(C)nc2C(=O)N2CCC[C@H]2Cc2cccc(-n3cccn3)c2)c1 | 20 nM |  |  | 
30 | O=C(c1ccccc1-c1ncccn1)N1CCC[C@H]1Cc1cccc(-n2nccn2)c1 |  |  | 4.4 nM | 
31 | Cc1ccc(C(=O)N2[C@H](Cc3cccc(-n4nccn4)c3)COC[C@H]2C)c(-n2nccn2)c1 |  | 623 µL/min/mg | 1 nM | 
32 | Cc1ccc(C(=O)N2[C@H](Cc3cccc(-n4nccn4)c3)COC[C@@H]2C)c(-n2nccn2)c1 | 1830 nM | 239 µL/min/mg | 34 nM | 
